“Also recorded” adds a separate entry of the source.
What was measured:
preformed AβOs = test: Binding of preformed AβOs to hippocampal neurons; type: cell-based, rat
Experimental: FIG. 11. […] Hippocampal neurons were treated with 3 μM NU-9 or vehicle for 30 min, then with Aβ monomer or preformed AβOs for 24 h. […] Neurons were stained with NU4 (anti-AβO antibody) and puncta per process were quantified.
FIG. 15. Mature hippocampal neurons were pre-treated with vehicle or 3 μM NU-9 for 30 min, then vehicle, 200 nM, or 500 nM AβO for 30 min. Then cells were fixed and labelled using anti-MAP2 (green, dendrites), DAPI (blue, nucleus), and NU2 (red, AβOs).
FIG. 19. Mature hippocampal neurons were treated first with 3 μM 9 for 30 min, and then with A) 30 or B) 200 nM LC AβOs for 30 min. Then, cells were fixed and labelled with anti-MAP2, DAPI, and NU2 (AβOs). The graphs show quantification of puncta/μm dendrite (30 images analyzed/condition, *** indicates p<0.001, ** p<0.01, * p<0.05).
If NU-9 did have some effect on preformed AβOs, this would support the alternate hypothesis that NU-9 removes AβO binding targets such as NKAα3 or PRP^c from the neuronal membrane^8-10.

total Aβ species = test: Total Aβ species in neuronal cultures (6E10 immunofluorescence); type: cell-based, rat; conditions: NU-9 3 μM, 30 min, then Aβ monomer 500 nM
Experimental: FIG. 12. […] Mature hippocampal neurons were treated with NU-9 (3 μM, 30 min), then with Aβ monomer (500 nM, 30 min). These were labelled with 6E10 (anti-total Aβ, green) and MAP2 (anti-dendrite). Total number of Aβ particles per images as well as fluorescence intensity of Aβ signal (IntDen) was quantified).
To follow up on this, we treated neurons with NU-9 (3 μM, 30 min) followed by Aβ monomer (500 nM, 30 min) and attempted to observe total Aβ species by dot blot. […] So, instead of using dot blot, we used immunofluorescence, labelling treated neurons for total Aβ species. Using this protocol, we were able to avoid interaction of the antibody with cell culture media, allowing for specific labelling.

AβOs bound to neurons = test: AβOs bound to dendrites of hippocampal neurons treated with Aβ42 monomer (immunofluorescence, NU2/NU4); type: cell-based, rat
cathepsin B [1] = target: cathepsin B (Homo sapiens, UniProt P07858); test: Purified cathepsin B enzyme activity (Z-RR-AMC to 7-AMC); type: biochemical; conditions: NU-9 0.0003-30 μM
Experimental: FIG. 28. A) 0.0003-30 μM NU-9 was combined with purified cathepsin B enzyme in the presence of the cathepsin B substrate Z-RR-AMC. Cathepsin B enzyme activity was measured by the rate of 7-AMC production by fluorescence. Percent change in rate with NU-9 was quantified in the graph. […] B) Mature hippocampal neurons were treated with NU-9 for 30 minutes, then Magic Red was used to monitor intracellular cathepsin L activity. Cells were treated in 3 wells.

Aβ42 = target: T1, Aβ42 (Homo sapiens, UniProt P05067); test: AβO formation from Aβ monomer in the absence of cells (dot blot, coverslips, fresh or conditioned media); type: biochemical
T1 construct: then treated with amyloid beta 1-42 (Aβ) monomer
Experimental: FIG. 5. A) NU-9 and Aβ were combined in F12 media, in the absence of cells, and incubated at 37° C. B) The concentration of AβOs was probed with NU2 antibody via dot blot after 24 hours in the conditions containing 3 μM NU-9 with or without Aβ.
FIG. 6. In dishes without cells, but in conditions that mimicked cell culture, 3 μM NU-9 and 500 nM Aβ42 for 30 minutes fixed with 3.7% formaldehyde and stained for AβOs (NU2, green) and mounted on slides before imaging at 63×.
FIG. 9. The effect of NU-9 requires the presence of cells. Conditioned media was collected from mature hippocampal neuron. DMSO control (Control), Aβ monomer (Aβ), or NU-9 and then Aβ (NU-9+Aβ in cond. media) were added, then concentration of AβOs were analyzed by dot blot. Conditioned media was also collected from neurons treated with NU-9, then Aβ was added to this (Media from NU-9 in cells+Aβ). […] Standard curve was created in media using 0-1000 fmol AβOs. The dot blot was labelled with NU2 (anti-AβO).
FIG. 10. […] (Conditioned Media) A dot blot probed with NU2 was used to measure AβO abundance in solutions of conditioned media to which DMSO vehicle (control), Aβ, and NU-9 followed by Aβ were added for 30 min each. The bottom row corresponds to samples in which cells were treated with NU-9 for 30 min, then extracellular media was removed, and Aβ was added to the media for 30 min. The standard curve at the top was made from 0-1000 fmol preformed AβOs. (Fresh Media) A dot blot probed with NU2 was used to measure AβO abundance in solutions of culture media to which DMSO vehicle (control), Aβ, and NU-9 (3-300 μM) followed by Aβ were added for 30 min each. Each of these solutions was prepared in triplicate. The standard curve at the top was made from 0-1000 fmol preformed AβOs.
In the absence of cells, NU-9 has no effect on AβO formation. […] Next, a follow-up experiment was conducted using conditions that more closely mimicked those of cell culture. Coverslips were coated, as usual for cell culture, with poly-D-lysine, and then placed into culture dishes with media. No cells were added. Then 3 μM NU-9 and 500 nM AβOs were added for 30 min. In this assay, the previous result was replicated.
Instead, NU-9 exerts an effect at the cell membrane or intracellularly.

cathepsin B [2] = target: T2, cathepsin B (Rattus norvegicus, UniProt P00787); test: Cathepsin B activity in hippocampal neurons (cell-based, Magic Red); conditions: neurons treated with NU-9 30 minutes
T2 construct: endogenous in cells
T2 sequence (P00787 80-126 limits assumed): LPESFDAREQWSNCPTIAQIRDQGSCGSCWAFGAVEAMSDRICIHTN
T2 sequence (P00787 129-333 limits assumed): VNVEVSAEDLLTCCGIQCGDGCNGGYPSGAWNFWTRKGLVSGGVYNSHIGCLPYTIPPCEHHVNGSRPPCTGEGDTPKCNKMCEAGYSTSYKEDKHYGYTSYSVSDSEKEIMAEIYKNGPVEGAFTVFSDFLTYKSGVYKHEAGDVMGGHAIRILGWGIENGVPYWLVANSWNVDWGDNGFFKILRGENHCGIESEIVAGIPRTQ

T1 sequence (P05067 672-713): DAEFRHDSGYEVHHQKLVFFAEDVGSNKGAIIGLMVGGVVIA

Q: What does the source list for `C[C@H](Oc1cc(C(F)(F)F)cc(C(F)(F)F)c1)C1CC(=O)CC(=O)C1` [NU-9, (S)-5-(1-(3,5-bis(trifluoromethyl)phenoxy)ethyl)cyclohexane-1,3-dione]?
A: binding of AβOs to hippocampal neurons (puncta/μm dendrite) (preformed AβOs; 3 μM 30 min, then 30 or 200 nM LC AβOs 30 min): no effect on the binding of the AβOs to hippocampal neurons; binding of preformed AβOs to dendrites (puncta/μm) (preformed AβOs; 3 μM NU-9 30 min, then 200 or 500 nM AβO 30 min): has no effect on the binding of preformed AβOs; also recorded: no effect on binding to dendrites; binding of preformed AβOs to neurons (NU4 puncta per process) (preformed AβOs; 3 μM NU-9 30 min, then preformed AβOs 24 h): does not reduce binding in neurons treated with premade AβOs; also recorded: does not reduce binding of preformed AβOs to neurons; total Aβ species (particles, IntDen) (total Aβ species): does not reduce total Aβ species observable in neuronal cultures; effect of NU-9 on neuron-binding AβOs in the presence of lysosome inhibitor (AβOs bound to neurons; 100 nM bafilomycin A 30 min, NU-9 3 μM 30 min, Aβ monomer 500 nM 30 min): unable to do so; also recorded: abolished in the presence of a lysosome acidification inhibitor; AβOs bound to dendrites when NU-9 is washed out prior to Aβ monomer (AβOs bound to neurons; NU-9 pre-treatment, washout, then Aβ 500 nM, 30 min): leads to a reduction in AβOs bound to dendrites; also recorded: maintained even when NU-9 was washed out; also recorded: reduced the number of AβOs bound to dendrites; also recorded: remains effective even when it is washed out; cathepsin B activity (cleavage of Z-RR-AMC to 7-AMC) (cathepsin B [1]): Minimal effect; AβO concentration by NU2 dot blot, no cells (Aβ42; 3 μM NU-9 and Aβ in F12 media, 37° C., 24 hours): no change in AβO formation was observed; also recorded: No significant difference was observed; AβOs formed from Aβ monomer in conditioned media of untreated cells (Aβ42; NU-9 3 μM, 30 min added to media, Aβ monomer 500 nM, 30 min): did not reduce the number of AβOs formed from Aβ monomer; also recorded: Aβ was not reduce in any treatment condition; AβO formation from Aβ monomer in fresh media (dot blot) (Aβ42; NU-9 3-300 μM followed by Aβ, 30 min each): did not reduce ABO formation directly; also recorded: does not reduce AβO formation from Aβ monomer in cell-free solution; AβOs formed from Aβ monomer in conditioned media from cells treated with NU-9 (Aβ42; cells treated 3 μM NU-9 30 min, media removed, Aβ added 30 min): also did not reduce the number of AβOs formed from Aβ monomer in the absence of cells; number of AβOs bound to coverslips, no cells (Aβ42; poly-D-lysine coverslips in media, 3 μM NU-9 and 500 nM Aβ42, 30 min): did not affect AβO formation; also recorded: did not significantly affect the number of AβOs bound to coverslips; cathepsin B activity in hippocampal neurons (cathepsin B [2]): not observed to alter cathepsin B activity

— patent US20240325319A1, “INHIBITORS OF AMYLOID BETA OLIGOMERIZATION AND THERAPEUTIC USES THEREOF” (Northwestern University, priority 2021, published 2024)
